Assay results taken from paper PMC6022226, “Novel coumarin-6-sulfonamides as apoptotic anti-proliferative agents: synthesis, in vitro biological evaluation, and QSAR studies” (Journal of Enzyme Inhibition and Medicinal Chemistry, 2018).
Where two headings read alike, the source gives them in different places.

How the values were obtained:
[1] = tested on: HepG2 hepatocellular carcinoma; assay: In vitro anti-proliferative activity, SRB assay, HepG2; format: cell-based, human
Experimental: (§1) HepG2 liver cancer, MCF-7 breast cancer and Caco-2 cancer cell lines were obtained from the National Cancer Institute (Cairo, Egypt). Caco-2 cells were grown in DMEM while HepG2 and MCF-7 were grown in RPMI-1640. Media were supplemented with 10% heat-inactivated FBS, 50 units/mL of penicillin and 50 µg/mL of streptomycin and maintained at 37 °C in a humidified atmosphere containing 5% CO2. The cells were maintained as a “monolayer culture” by serial subculturing. Cytotoxicity was determined using the sulforhodamine B (SRB) method as previously described by Skehan et al.[50] Exponentially growing cells were collected using 0.25% trypsin-EDTA and seeded in 96-well plates at 1000–2000 cells/well in supplemented DMEM medium. After 24 h, cells were incubated for 72 h with various concentrations of the tested compounds as well as doxorubicin as the reference compound. Following 72 h of treatment, the cells were fixed with 10% trichloroacetic acid for 1 h at 4 °C. Wells were stained for 10 min at room temperature with 0.4% SRB dissolved in 1% acetic acid. The plates were air dried for 24 h, and the dye was solubilized with Tris–HCl for 5 min on a shaker at 1600 rpm. The optical density (OD) of each well was measured spectrophotometrically at 564 nm with an ELISA microplate reader (ChroMate-4300, FL, USA). The IC50 values were calculated according to the equation for Boltzmann sigmoidal concentrationeresponse curve using the nonlinear regression models (GraphPad, Prism Version 5). The results reported are means of at least three separate experiments. Significant differences were analyzed by one-way ANOVA wherein the differences were considered to be significant at p < .05.
(§2) All the newly synthesized target coumarin sulfonamides were evaluated for their in vitro anti-proliferative activity against three human tumor cancer cell lines, HepG2 hepatocellular carcinoma, MCF-7 breast cancer, and Caco-2 colon cancer, using SRB colorimetric assay as described by Skehan et al.^50 Doxorubicin was involved in the experiments as a reference cytotoxic compound.

Caco-2 colon cancer = assay: In vitro anti-proliferative activity, SRB assay, Caco-2; format: cell-based, human
Experimental: as §1, §2

MCF-7 breast cancer = assay: In vitro anti-proliferative activity, SRB assay, MCF-7; format: cell-based, human; settings: mean ± SE of three experiments
Experimental: as §1, §2

[2] = Homo sapiens, HepG2, 72 h, 72 h incubation, SRB, mean ± SE of three experiments, read-out: IC50 HepG2
[3] = Homo sapiens, HepG2, training set, Table 4, -log IC50 (IC50 in µM), read-out: HepG2 Experimental activity (pIC50) (converted)
[4] = Homo sapiens, Caco-2, 72 h incubation, SRB, mean ± SE of three experiments, read-out: IC50 Caco-2
[5] = Homo sapiens, Caco-2, training set, Table 4, -log IC50 (IC50 in µM), read-out: Caco-2 Experimental activity (pIC50) (converted)
[6] = Homo sapiens, MCF7, 72 h incubation
[7] = Homo sapiens, HepG2, external validation test compounds, Table 5, -log IC50 (IC50 in µM), read-out: HepG2 Experimental activity (pIC50) (converted)
[8] = 72 h incubation, SRB, mean ± SE of three experiments, read-out: IC50 HepG2
[9] = training set, Table 4, -log IC50 (IC50 in µM)

IC50 [1, 2] [µM]	IC50 [1, 3] [µM]	IC50 (Caco-2 colon cancer; [4]) [µM]	IC50 (Caco-2 colon cancer; [5]) [µM]	IC50 (MCF-7 breast cancer; [6]) [µM]	melting point [°C]	IC50 [1, 7] [µM]	IC50 (Caco-2 colon cancer; Homo sapiens, Caco-2, external validation test compounds, Table 5, -log IC50 (IC50 in µM), read-out: Caco-2 Experimental activity (pIC50) (converted)) [µM]	IC50 [1, 8] [µM]	HepG2 Experimental activity (pIC50) [1, 9]	IC50 (Caco-2 colon cancer; 72 h incubation, SRB, mean ± SE of three experiments, read-out: IC50 Caco-2) [µM]	Caco-2 Experimental activity (pIC50) (Caco-2 colon cancer; [9])	IC50 (MCF-7 breast cancer; 72 h incubation, read-out: IC50 MCF7) [µM]	Compound	IC50 ([1]; Homo sapiens, HepG2, 72 h incubation, SRB, mean ± SE of three experiments, read-out: IC50 HepG2) [µM]
–	–	–	–	–	–	–	–	25.1 ± 2.08	−1.3992	175 ± 12.3	−2.2428	10.6 ± 1.35	N-(4–(1-(2–(4-methyl-5-oxo-4,5-dihydrothiazol-2-yl)hydrazono)ethyl)phenyl)-2-oxo-2H-chromene-6-sulfonamide [Compound 15b]	–
72.5 ± 6.33	72.5	108 ± 11.4	108	34.7 ± 2.94	250 to 252	–	–	–	–	–	–	–	CC(=NNc1nc(C)c(N=Nc2ccc(Cl)cc2)s1)c1ccc(NS(=O)(=O)c2ccc3oc(=O)ccc3c2)cc1 [Compound 11c, N-(4–(1-(2–(5-((4-chlorophenyl)diazenyl)-4-methylthiazol-2-yl)hydrazono)ethyl)phenyl)-2-oxo-2H-chromene-6-sulfonamide]	–
> 200	–	16.1 ± 1.28	16.1	> 200	258 to 259	–	–	–	–	–	–	–	CC(=NNc1nc(C)c(N=Nc2ccc(C)cc2)s1)c1ccc(NS(=O)(=O)c2ccc3oc(=O)ccc3c2)cc1 [Compound 11d, N-(4–(1-(2–(4-methyl-5-(p-tolyldiazenyl)thiazol-2yl)hydrazono)ethyl)phenyl)-2-oxo-2H-chromene-6-sulfonamide]	–
7.57 ± 0.66	–	46.1 ± 3.17	46.1	16.3 ± 1.48	193 to 194	7.57	–	–	–	–	–	–	CC(=NNC1=NC(=O)C(CC(=O)O)S1)c1ccc(NS(=O)(=O)c2ccc3oc(=O)ccc3c2)cc1 (stereo not shown) [Compound 15c, 2–(4-Oxo-2–(2-(1–(4-(2-oxo-2H-chromene-6-sulfonamido)phenyl)ethylidene) hydrazinyl)-4,5-dihydrothiazol-5-yl)acetic acid]	–
11.8 ± 1.16	11.8	96.6 ± 5.37	96.6	> 200	201 to 202	–	–	–	–	–	–	–	CC(=NNc1nc(-c2cc3ccccc3oc2=O)cs1)c1ccc(NS(=O)(=O)c2ccc3oc(=O)ccc3c2)cc1 [Compound 13b, 2-Oxo-N-(4–(1-(2–(4-(2-oxo-2H-chromen-3-yl)thiazol-2-yl)hydrazono)ethyl)phenyl)-2H-chromene-6-sulfonamide]	–
6.9 ± 2.05	–	4.1 ± 1.37	–	3.18 ± 0.32	–	–	–	5.43 ± 0.24	–	–	–	–	COc1cccc2c1C(=O)c1c(O)c3c(c(O)c1C2=O)C[C@@](O)(C(=O)CO)C[C@@H]3O[C@H]1C[C@H](N)[C@H](O)[C@H](C)O1 [Doxorubicin, reference compound]	–

The next lines start with the compound.

Compound	IC50 [1, 2] [µM]	IC50 [1, 3] [µM]	IC50 (Caco-2 colon cancer; [4]) [µM]	IC50 (Caco-2 colon cancer; [5]) [µM]	IC50 (MCF-7 breast cancer; [6]) [µM]	melting point [°C]	IC50 [1, 7] [µM]	IC50 (Caco-2 colon cancer; Homo sapiens, Caco-2, external validation test compounds, Table 5, -log IC50 (IC50 in µM), read-out: Caco-2 Experimental activity (pIC50) (converted)) [µM]	IC50 [1, 8] [µM]	HepG2 Experimental activity (pIC50) [1, 9]	IC50 (Caco-2 colon cancer; 72 h incubation, SRB, mean ± SE of three experiments, read-out: IC50 Caco-2) [µM]	Caco-2 Experimental activity (pIC50) (Caco-2 colon cancer; [9])	IC50 (MCF-7 breast cancer; 72 h incubation, read-out: IC50 MCF7) [µM]	IC50 ([1]; Homo sapiens, HepG2, 72 h incubation, SRB, mean ± SE of three experiments, read-out: IC50 HepG2) [µM]
CC(=NNc1ccccc1)c1ccc(NS(=O)(=O)c2ccc3oc(=O)ccc3c2)cc1 [Compound 8a, 2-Oxo-N-(4–(1-(2-phenylhydrazono)ethyl)phenyl)-2H-chromene-6-sulfonamide]	27 ± 2.01	27	8.53 ± 0.72	8.53	14.3 ± 1.18	178 to 180	–	–	–	–	–	–	–	–
NS(=O)(=O)c1ccc(NS(=O)(=O)c2ccc3oc(=O)ccc3c2)cc1 [Compound 4a, 2-Oxo-N-(4-sulfamoylphenyl)-2H-chromene-6-sulfonamide]	35.5 ± 2.93	35.5	193 ± 15.3	193	50.7 ± 4.61	266 to 268	–	–	–	–	–	–	–	–
CC(=O)c1ccc(NS(=O)(=O)c2ccc3oc(=O)ccc3c2)cc1 [Compound 6, N-(4-acetylphenyl)-2-oxo-2H-chromene-6-sulfonamide]	25.6 ± 1.36	–	81.5 ± 6.89	–	> 200	–	25.6	81.5	–	–	–	–	–	–
O=c1ccc2cc(S(=O)(=O)Nc3ccc(S(=O)(=O)Nc4ccccn4)cc3)ccc2o1 [Compound 4b, 2-Oxo-N-(4-(N-(pyridin-2-yl)sulfamoyl)phenyl)-2H-chromene-6-sulfonamide]	8.08 ± 0.51	8.08	66.9 ± 6.07	66.9	22.9 ± 2.04	237 to 239	–	–	–	–	–	–	–	–
CC(=NNS(=O)(=O)c1ccc(C)cc1)c1ccc(NS(=O)(=O)c2ccc3oc(=O)ccc3c2)cc1 [Compound 8d, 2-Oxo-N-(4–(1-(2-tosylhydrazono)ethyl)phenyl)-2H-chromene-6-sulfonamide]	89.9 ± 7.63	–	16 ± 1.32	16	> 200	163 to 165	89.9	–	–	–	–	–	–	–
CC(=NNC(N)=S)c1ccc(NS(=O)(=O)c2ccc3oc(=O)ccc3c2)cc1 [Compound 9, 2–(1-(4–(2-Oxo-2H-chromene-6-sulfonamido)phenyl)ethylidene)hydrazine carbothioamide]	163 ± 10.2	163	> 200	–	> 200	253 to 254	–	–	–	–	–	–	–	–
CC(=NNc1c(Cl)cc(Cl)cc1Cl)c1ccc(NS(=O)(=O)c2ccc3oc(=O)ccc3c2)cc1 [Compound 8c, 2-Oxo-N-(4–(1-(2–(2,4,6-trichlorophenyl)hydrazono)ethyl)phenyl)-2H-chromene-6-sulfonamide]	29.8 ± 2.21	29.8	76.9 ± 6.59	76.9	> 200	259 to 260	–	–	–	–	–	–	–	–
CCOC(=O)c1sc(NN=C(C)c2ccc(NS(=O)(=O)c3ccc4oc(=O)ccc4c3)cc2)nc1C [Compound 11b, Ethyl 4-methyl-2–(2-(1–(4-(2-oxo-2H-chromene-6-sulfonamido)phenyl)ethylidene)hydrazinyl)thiazole-5-carboxylate]	54.3 ± 3.87	54.3	145 ± 8.02	145	63.4 ± 5.69	180 to 182	–	–	–	–	–	–	–	–
CC(=NNc1ccc([N+](=O)[O-])cc1[N+](=O)[O-])c1ccc(NS(=O)(=O)c2ccc3oc(=O)ccc3c2)cc1 [Compound 8b, N-(4–(1-(2–(2,4-dinitrophenyl)hydrazono)ethyl)phenyl)-2-oxo-2H-chromene-6-sulfonamide]	–	11.8	89.6 ± 7.26	89.6	126 ± 10.9	269 to 270	–	–	–	–	–	–	–	11.8 ± 1.34
CC(=NNc1nc(C)cs1)c1ccc(NS(=O)(=O)c2ccc3oc(=O)ccc3c2)cc1 [Compound 11a, N-(4–(1-(2–(4-methylthiazol-2-yl)hydrazono)ethyl)phenyl)-2-oxo-2H-chromene-6-sulfonamide]	> 200	–	10.1 ± 0.9	–	13.9 ± 1.19	257 to 259	–	–	–	–	–	–	–	–
